Assays:
AT4 receptor = target: T1, AT4 receptor (Mus musculus, UniProt Q8C129); test: mouse 4-plate model of anxiety, AT4 alone (Example 1); type: in vivo; conditions: acute; for number of punished crossings compared to vehicle: subcutaneous, 30 min before test, male Swiss Webster mice
T1 construct: from tissue; host or cells: whole living Swiss Webster mouse (in vivo behavioural test)
T1 sequence (Q8C129 1-1025): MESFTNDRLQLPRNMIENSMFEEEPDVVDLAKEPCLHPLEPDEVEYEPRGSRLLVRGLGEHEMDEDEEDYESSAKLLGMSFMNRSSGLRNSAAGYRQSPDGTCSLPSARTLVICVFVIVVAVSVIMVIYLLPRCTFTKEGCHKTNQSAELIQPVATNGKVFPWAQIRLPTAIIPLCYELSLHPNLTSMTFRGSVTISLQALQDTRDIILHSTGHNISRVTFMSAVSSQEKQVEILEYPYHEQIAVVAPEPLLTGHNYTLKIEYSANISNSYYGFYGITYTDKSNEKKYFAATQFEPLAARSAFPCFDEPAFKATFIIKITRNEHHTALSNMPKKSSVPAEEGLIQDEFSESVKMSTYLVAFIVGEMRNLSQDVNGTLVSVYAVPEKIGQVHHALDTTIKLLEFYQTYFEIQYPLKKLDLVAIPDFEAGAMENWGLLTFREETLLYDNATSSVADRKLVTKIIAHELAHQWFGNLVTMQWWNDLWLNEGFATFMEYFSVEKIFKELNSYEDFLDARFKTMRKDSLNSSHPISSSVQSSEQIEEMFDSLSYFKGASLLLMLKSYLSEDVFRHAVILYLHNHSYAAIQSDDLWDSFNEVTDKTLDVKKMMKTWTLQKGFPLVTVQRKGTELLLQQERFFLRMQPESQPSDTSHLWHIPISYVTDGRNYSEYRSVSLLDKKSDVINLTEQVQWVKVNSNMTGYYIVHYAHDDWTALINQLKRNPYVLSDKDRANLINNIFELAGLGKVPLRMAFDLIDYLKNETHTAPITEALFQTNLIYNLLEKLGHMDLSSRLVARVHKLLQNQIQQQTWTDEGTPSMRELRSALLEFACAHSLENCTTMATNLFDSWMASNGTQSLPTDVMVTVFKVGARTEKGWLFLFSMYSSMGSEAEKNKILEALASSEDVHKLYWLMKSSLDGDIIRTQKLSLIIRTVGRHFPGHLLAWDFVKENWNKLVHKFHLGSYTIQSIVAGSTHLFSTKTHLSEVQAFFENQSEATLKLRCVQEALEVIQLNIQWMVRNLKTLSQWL
Protocol: Male Swiss Webster mice weighing 18-24 g were used in the 4 plate studies. Animals were housed in groups of 15 in an AAALAC-accredited facility (Wyeth Research, Princeton, N.J.) with food and water available ad libitum. Animals were maintained on a 12-hour light/dark cycle (lights on at 0600) with all studies performed during the light phase. On the day of experiments, mice were injected with AT4 (0, 1, 3 and 10 mg/kg) 30 minutes before the start of the study. Initially, mice were individually placed in a plexiglass cage (18×25×16 cm) with a floor consisting of four rectangular metal plates (8×11 cm), which are wired to a shock generator (Med Associates). In each experiment, mice were placed into the chamber and given an 18-sec habituation period, which was followed by a 1-min test session. After the habituation period, an electric shock (0.8 mA) was delivered for 3.0 sec when mice crossed from one plate to another. The crossing from one plate to the next is referred to as a “punished crossing.” The number of punished crossings during a 1-min test period was recorded by a computer. The mean number of punished crossings for each group was expressed as a percentage of the value observed in the control animals. Data were subjected to an overall one-way analysis of variance (ANOVA) and post-hoc comparisons were made by a contrast using least squares. Significant differences in treatment occurred when p<0.05 compared to vehicle.

oxytocin receptor = target: T2, oxytocin receptor (Mus musculus, UniProt P97926); test: mouse 4-plate model, AT4 with the oxytocin receptor antagonist WAY-162720 (Example 2); type: in vivo; conditions: AT4 3 mg/kg alone, acute, 30 min before test
T2 construct: from tissue; host or cells: whole living Swiss Webster mouse (in vivo behavioural test)
T2 sequence (P97926 1-388): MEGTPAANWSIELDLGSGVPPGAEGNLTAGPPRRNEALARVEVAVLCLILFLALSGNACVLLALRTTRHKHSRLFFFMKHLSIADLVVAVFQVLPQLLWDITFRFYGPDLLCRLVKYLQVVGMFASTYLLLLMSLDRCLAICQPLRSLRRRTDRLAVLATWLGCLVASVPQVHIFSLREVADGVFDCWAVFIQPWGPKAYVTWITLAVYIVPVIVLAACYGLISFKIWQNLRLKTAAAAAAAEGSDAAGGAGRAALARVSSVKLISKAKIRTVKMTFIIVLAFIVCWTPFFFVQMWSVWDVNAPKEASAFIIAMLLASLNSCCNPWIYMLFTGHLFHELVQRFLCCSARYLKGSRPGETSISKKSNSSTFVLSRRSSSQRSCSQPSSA
Protocol: Male Swiss Webster mice weighing 18-24 g were used in the 4 plate studies. […] Animals were maintained on a 12-hour light/dark cycle (lights on at 0600) with all studies performed during the light phase. On the day of experiments, mice were injected with AT4 (0, 1, 3 and 10 mg/kg) 30 minutes before the start of the study. Initially, mice were individually placed in a plexiglass cage (18×25×16 cm) with a floor consisting of four rectangular metal plates (8×11 cm), which are wired to a shock generator (Med Associates). In each experiment, mice were placed into the chamber and given an 18-sec habituation period, which was followed by a 1-min test session. After the habituation period, an electric shock (0.8 mA) was delivered for 3.0 sec when mice crossed from one plate to another. The crossing from one plate to the next is referred to as a “punished crossing.” The number of punished crossings during a 1-min test period was recorded by a computer. […] Data were subjected to an overall one-way analysis of variance (ANOVA) and post-hoc comparisons were made by a contrast using least squares. Significant differences in treatment occurred when p<0.05 compared to vehicle.
For these studies, the same 4-plate procedures were used as described in Example 1, above. […] A 3-sec time followed the delivery of each shock and a computer recorded the number of punished crossings during a 1-min test period. […]

CC[C@H](C)[C@H](NC(=O)[C@H](Cc1ccc(O)cc1)NC(=O)[C@@H](N)C(C)C)C(=O)N[C@@H](Cc1cnc[nH]1)C(=O)N1CCC[C@H]1C(=O)N[C@@H](Cc1ccccc1)C(=O)O [AT4, Val-Tyr-Ile-His-Pro-Phe]
number of punished crossings compared to vehicle (AT4 receptor; AT4 3 mg/kg): significantly (p<0.05) increased | number of punished crossings compared to vehicle (AT4 receptor; AT4 10 mg/kg): significantly (p<0.05) increased | anxiolytic-like effect in the 4-plate model, dose dependence (AT4 receptor; AT4 1, 3 and 10 mg/kg subcutaneous, FIG. 1): dose-dependent | number of punished crossings compared to vehicle control (oxytocin receptor): increased

— patent US20070111929A1, “Methods for the treatment of anxiety and for identification of anxiolytic agents” (Wyeth, priority 2005, published 2007)
